From patent publication US10894788B2, “Inhibitors of cyclin-dependent kinases” (Kinnate Biopharma Inc., priority 2018, dated 2021)

target: CDK12 wt/CycK (Homo sapiens (Human), UniProt Q9NYV4); test: Radiometric protein kinase assay (33PanQinase Activity Assay), Assay Condition A (thiol containing conditions); format: biochemical; conditions: thiol containing conditions (1.2 mM DTT), ATP 0.3 μM; read-out: CDK12 IC50 Condition A
Method in brief: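 Recombinant human kinase incubated with [33P]ATP, substrate and compound (10 concentrations, 1×10^−04M to 3×10^−09M, singlicate, 1% DMSO) under thiol-containing buffer conditions, 60 min at 30 °C. 33Pi incorporation counted by scintillation; residual activity normalised to no-inhibitor and no-kinase controls, IC50 derived.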

Sequence of CDK12 wt/CycK (Q9NYV4 whole entry): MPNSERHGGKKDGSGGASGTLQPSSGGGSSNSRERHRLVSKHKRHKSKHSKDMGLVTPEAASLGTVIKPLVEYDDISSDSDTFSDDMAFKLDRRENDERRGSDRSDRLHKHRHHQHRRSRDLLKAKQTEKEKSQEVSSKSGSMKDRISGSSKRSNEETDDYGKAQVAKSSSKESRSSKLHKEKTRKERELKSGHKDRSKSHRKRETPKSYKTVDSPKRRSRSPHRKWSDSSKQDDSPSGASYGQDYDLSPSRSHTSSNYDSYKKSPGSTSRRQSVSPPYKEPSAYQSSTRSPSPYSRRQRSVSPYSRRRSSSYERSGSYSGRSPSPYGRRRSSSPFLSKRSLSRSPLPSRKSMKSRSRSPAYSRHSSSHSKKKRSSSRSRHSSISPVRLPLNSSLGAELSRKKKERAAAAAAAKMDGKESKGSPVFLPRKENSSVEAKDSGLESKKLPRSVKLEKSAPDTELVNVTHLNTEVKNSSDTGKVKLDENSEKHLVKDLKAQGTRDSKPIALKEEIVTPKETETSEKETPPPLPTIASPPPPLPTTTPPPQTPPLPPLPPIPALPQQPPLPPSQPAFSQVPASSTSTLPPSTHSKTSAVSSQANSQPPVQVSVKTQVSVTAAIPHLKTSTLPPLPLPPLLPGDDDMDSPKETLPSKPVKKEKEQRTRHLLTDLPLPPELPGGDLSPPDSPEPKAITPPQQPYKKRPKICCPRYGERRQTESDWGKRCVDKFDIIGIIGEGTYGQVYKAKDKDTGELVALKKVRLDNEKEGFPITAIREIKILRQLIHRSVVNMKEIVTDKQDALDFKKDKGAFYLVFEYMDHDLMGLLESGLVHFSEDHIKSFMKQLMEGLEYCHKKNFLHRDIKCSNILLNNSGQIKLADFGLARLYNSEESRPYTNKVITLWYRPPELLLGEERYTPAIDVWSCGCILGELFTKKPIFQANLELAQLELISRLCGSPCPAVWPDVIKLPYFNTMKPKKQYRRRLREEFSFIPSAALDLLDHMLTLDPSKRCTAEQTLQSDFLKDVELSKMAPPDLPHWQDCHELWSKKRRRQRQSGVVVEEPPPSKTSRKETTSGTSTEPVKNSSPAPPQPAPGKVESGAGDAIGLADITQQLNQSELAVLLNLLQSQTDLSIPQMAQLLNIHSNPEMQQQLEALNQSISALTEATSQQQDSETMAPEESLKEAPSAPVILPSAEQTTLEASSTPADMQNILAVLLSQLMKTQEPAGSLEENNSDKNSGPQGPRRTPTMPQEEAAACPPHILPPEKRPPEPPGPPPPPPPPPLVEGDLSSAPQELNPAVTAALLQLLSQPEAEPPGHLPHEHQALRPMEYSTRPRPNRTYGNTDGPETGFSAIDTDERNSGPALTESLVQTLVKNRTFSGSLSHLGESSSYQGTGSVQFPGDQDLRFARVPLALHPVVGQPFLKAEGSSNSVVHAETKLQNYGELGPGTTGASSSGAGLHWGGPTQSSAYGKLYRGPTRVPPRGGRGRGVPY
Sequence of CDK12 wt/CycK (O75909 whole entry partner): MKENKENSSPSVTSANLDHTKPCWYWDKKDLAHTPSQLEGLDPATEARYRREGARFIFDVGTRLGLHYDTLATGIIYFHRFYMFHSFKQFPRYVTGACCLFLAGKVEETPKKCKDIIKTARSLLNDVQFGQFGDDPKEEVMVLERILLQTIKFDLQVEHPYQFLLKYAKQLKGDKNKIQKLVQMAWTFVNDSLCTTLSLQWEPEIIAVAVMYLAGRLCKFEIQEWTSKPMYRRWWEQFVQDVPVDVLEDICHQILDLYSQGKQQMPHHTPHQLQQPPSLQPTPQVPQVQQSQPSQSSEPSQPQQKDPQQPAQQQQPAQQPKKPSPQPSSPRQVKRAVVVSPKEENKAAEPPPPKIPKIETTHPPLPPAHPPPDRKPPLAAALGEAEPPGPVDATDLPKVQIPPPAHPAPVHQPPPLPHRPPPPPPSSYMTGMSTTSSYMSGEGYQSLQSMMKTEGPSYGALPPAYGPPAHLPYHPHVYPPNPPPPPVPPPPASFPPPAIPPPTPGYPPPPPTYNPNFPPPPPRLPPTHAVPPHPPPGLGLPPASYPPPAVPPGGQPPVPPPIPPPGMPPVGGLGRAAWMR

Structure (SMILES) | IC50
COc1nc(N[C@@H]2CCN(C(=O)c3ccc(NC(=O)/C=C/CN4CC[C@H](F)C4)cn3)C2)ncc1Cl [Example 171, (E)-N-(6-((R)-3-((5-chloro-4-methoxypyrimidin-2-yl)amino)pyrrolidine-1-carbonyl)pyridin-3-yl)-4-((S)-3-fluoropyrrolidin-1-yl)but-2-enamide] | 0.1 to 1 µM
COc1nc(N[C@@H]2CCN(C(=O)c3ccc(NC(=O)/C=C/CN4CCCC(F)(F)C4)cn3)C2)ncc1Cl [Example 172, (R,E)-N-(6-(3-((5-chloro-4-methoxypyrimidin-2-yl)amino)pyrrolidine-1-carbonyl)pyridin-3-yl)-4-(3,3-difluoropiperidin-1-yl)but-2-enamide] | 0.1 to 1 µM
COc1nc(N[C@@H]2CCN(C(=O)c3ccc(NC(=O)/C=C/CN4CCCC(F)(F)C4)cc3)C2)ncc1Cl [Example 173, (R,E)-N-(4-(3-((5-chloro-4-methoxypyrimidin-2-yl)amino)pyrrolidine-1-carbonyl)phenyl)-4-(3,3-difluoropiperidin-1-yl)but-2-enamide] | 0.1 to 1 µM
COc1nc(N[C@@H]2CCN(C(=O)c3ccc(NC(=O)/C=C/CN4CCOCC4)cn3)C2)ncc1Cl [Example 174, (R,E)-N-(6-(3-((5-chloro-4-methoxypyrimidin-2-yl)amino)pyrrolidine-1-carbonyl)pyridin-3-yl)-4-morpholinobut-2-enamide] | 0.1 to 1 µM
COc1nc(N[C@@H]2CCN(C(=O)c3ccc(NC(=O)/C=C/CN4CCC[C@H](F)C4)cn3)C2)ncc1Cl [Example 175, (E)-N-(6-((R)-3-((5-chloro-4-methoxypyrimidin-2-yl)amino)pyrrolidine-1-carbonyl)pyridin-3-yl)-4-((S)-3-fluoropiperidin-1-yl)but-2-enamide] | 0.1 to 1 µM
COc1nc(N[C@@H]2CCN(C(=O)c3ccc(NC(=O)/C=C/CN4CCC[C@@H](F)C4)cn3)C2)ncc1Cl [Example 176, (E)-N-(6-((R)-3-((5-chloro-4-methoxypyrimidin-2-yl)amino)pyrrolidine-1-carbonyl)pyridin-3-yl)-4-((R)-3-fluoropiperidin-1-yl)but-2-enamide] | 0.1 to 1 µM
COc1nc(N[C@@H]2CCN(C(=O)c3ccc(NC(=O)/C=C/CN4CCC[C@H](F)C4)cc3)C2)ncc1Cl [Example 177, (E)-N-(4-((R)-3-((5-chloro-4-methoxypyrimidin-2-yl)amino)pyrrolidine-1-carbonyl)phenyl)-4-((S)-3-fluoropiperidin-1-yl)but-2-enamide] | 0.1 to 1 µM
COc1nc(N[C@@H]2CCN(C(=O)c3ccc(NC(=O)/C=C/CN4CCC[C@@H](F)C4)cc3)C2)ncc1Cl [Example 178, (E)-N-(4-((R)-3-((5-chloro-4-methoxypyrimidin-2-yl)amino)pyrrolidine-1-carbonyl)phenyl)-4-((R)-3-fluoropiperidin-1-yl)but-2-enamide] | 0.1 to 1 µM
COc1nc(N[C@@H]2CCN(C(=O)c3ccc(NC(=O)/C=C/CN4CC[C@@H](F)C4)nc3)C2)ncc1Cl [Example 179, (E)-N-(5-((R)-3-((5-chloro-4-methoxypyrimidin-2-yl)amino)pyrrolidine-1-carbonyl)pyridin-2-yl)-4-((R)-3-fluoropyrrolidin-1-yl)but-2-enamide] | 0.1 to 1 µM
C=CC(=O)Nc1ccc(C(=O)N2C[C@H](Nc3ncc(Cl)c(OC)n3)C[C@@H]2C)cc1 [Example 180, N-(4-((2S,4R)-4-((5-chloro-4-methoxypyrimidin-2-yl)amino)-2-methylpyrrolidine-1-carbonyl)phenyl)acrylamide] | < 0.1 µM
C#Cc1cnc(N[C@@H]2CCN(C(=O)c3ccc(NC(=O)C=C)cc3)C2)nc1 [Example 181, (R)—N-(4-(3-((5-ethynylpyrimidin-2-yl)amino)pyrrolidine-1-carbonyl)phenyl)acrylamide] | < 0.1 µM
C#Cc1cnc(N[C@@H]2CCN(C(=O)c3ccc(NC(=O)C=C)cc3)C2)nc1OC [Example 182, (R)—N-(4-(3-((5-ethynyl-4-methoxypyrimidin-2-yl)amino)pyrrolidine-1-carbonyl)phenyl)acrylamide] | < 0.1 µM
